Source: PubChem BioAssay AID1845194 (Molecular Pharmacology Branch, DTP, NCI, 2023)

Test system: 287954-098-R-J1 tumor spheroid viability
Assay: Anticancer human tumor 287954-098-R-J1 patient-derived Ewing sarcoma cell line growth inhibition
Conditions: spheroids with HUVEC and MSC; for IC50: curve of first compound; for viability, T/C: stronger effect = lower value
Text: Multicellular complex tumor spheroid response to DNA repair inhibitors in combination with DNA-damaging drugs
This study explores the anticancer activities of DNA-damaging drugs and inhibitors of DNA damage repair, both as single agents and in combinations. Complex tumor spheroids comprised of malignant cells, endothelial cells and mesenchymal stem cells served as an in vitro model for human solid tumors. This model system incorporates physiologically relevant features and patient-derived or established malignant cell lines with clinically relevant genetic alterations from many tumor types. Twenty-six patient-derived or established malignant cell lines were evaluated representing sarcoma, melanoma, small cell lung cancer (SCLC), non-small cell lung cancer (NSCLC), as well as bladder, ovarian and pancreatic cancers. The concentration ranges selected for each drug and investigational agent were based upon clinically achievable concentrations if the clinical Cmax of the agent was known.
Compounds. The drugs and compounds olaparib (NSC753686), talazoparib (NSC767125), berzosertib (NSC777718), elimusertib (NSC800525), nedisertib (NSC802822), VX-984 (NSC792969), AZD-1390 (NSC803789), temozolomide (NSC362856), topotecan (NSC609699), trabectedin (NSC813783), staurosporine (NSC755774), and gemcitabine (NSC613327) were obtained from the National Cancer Institute (NCI) Developmental Therapeutics Program Chemical Repository. The FDA-approved anticancer drug set is available from the Developmental Therapeutics Program at https://dtp.cancer.gov/organization/dscb/obtaining/available_plates.htm. […] The stock solutions were prepared in dimethyl sulfoxide (DMSO, Sigma-Aldrich, St. Louis, MO, cat. D2650) at 400-fold the tested concentration and stored at -70 degrees C. Prior to their use, the stock solutions were diluted in fresh medium and the final DMSO concentration in the assay was 0.25% (v/v). All drugs and investigational agents were tested over a range starting from a high concentration at or near the clinical Cmax and decreasing in half-log increments. If the clinical Cmax for an agent had not been determined, the highest concentration tested was 10 microM.
Cell Lines. The patient-derived cancer cell (PDC) lines: 156681-154-R-J1-PDC, 283228-195-R-J1-PDC, 287954-098-R-J1-PDC, 292921-168-R-J2-PDC, 349418-098-R-PDC, 425362-245-T-J1-PDC, 556581-035-R-J1-PDC, and BL0293-F563-PDC were received from the NCI Patient-Derived Models Repository (PDMR, https://pdmr.cancer.gov). The established cell lines HS-SY-2 (RRID:CVCL_8719), MPNST, and SYO-1 (RRID:CVCL_7146) were obtained from the Sloan Kettering Institute. The alveolar soft parts sarcoma cell line ASPS-1 (RRID:CVCL_S738) was established at the NCI and grown from internal seed stocks. The following established cell lines were purchased from the American Type Culture Collection (ATCC, Manassas, VA): G-401 (ATCC, cat. CRL-1441, RRID:CVCL_0270), SW982 (ATCC, cat. HTB-93, RRID:CVCL_1734), VA-ES-BJ (ATCC, cat. CRL-2138, RRID:CVCL_1785), NCI-H719 (ATCC, cat. CRL-5837, RRID:CVCL_1582), NCI-H196 (ATCC, cat. CRL-5823, RRID:CVCL_1509), NCI-H841 (ATCC, cat. CRL-5845, RRID:CVCL_1595), NCI-H1618 (ATCC, cat. CRL-5879, RRID:CVCL_1480), NCI-H1876 (ATCC, cat. CRL-5902, RRID:CVCL_1503), DMS 114 (ATCC, cat. CRL-2066; RRID:CVCL_1174), NCI-H211 (ATCC, cat. CRL-5824; RRID:CVCL_1529), and SW 1271 (ATCC, cat. CRL-2177, RRID:CVCL_1716). The small cell lung cancer cell line COR-L88 was purchased from Sigma-Aldrich (cat. 92031917-1VL, RRID:CVCL_1141). The non-small cell lung cancer cell lines NCI-H226 (RRID:CVCL_1544) and NCI-H322M (RRID:CVCL_1557) were established at the NCI and grown from internal seed stocks. Pooled donor human umbilical vein endothelial cells (HUVEC, Lonza, cat. CC-2519) and human mesenchymal stem cells (hMSC, Lonza, cat. PT-2501) were purchased from Lonza (Walkersville, MD).
Cell Culture. All cells were maintained in an incubator at 37 degrees C and 5% CO2 with 95% humidity. […]
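Note: spheroids exposed to compound for 7 days before viability readout.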
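Throughout, for viability, T/C: luminescent signal taken as surrogate of viable cell content; 100% = DMSO vehicle control viability and lower means growth inhibition.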

How did the IC50 (second compound 0.003 µM) turn out when `COc1cc(C)[nH]c(=O)c1CN1CCc2c(Cl)cc(C(OC)C3COC3)c(Cl)c2C1=O` (stereo not given) + CC[C@@]1(O)C(=O)OCc2c1cc1n(c2=O)Cc2cc3c(CN(C)C)c(O)ccc3nc2-1 was run?
Its IC50 is > 10000 nM.

And the IC50 (second compound 0.00949 µM)?
The IC50 was > 10000 nM.

And the IC50 (second compound 0.03 µM)?
The IC50 was 117 nM.

And the IC50 (second compound 0.0949 µM)?
The IC50 was < 31.6 nM.

And the IC50 (second compound 0.3 µM)?
The IC50 was < 31.6 nM.

And the viability, T/C (second compound 0.003 µM, first compound 0.0316 µM)?
Its viability, T/C is 94.9%.

What about the viability, T/C (second compound 0.003 µM, first compound 0.1 µM) of the same compound?
The viability, T/C was 94.7%.

What about the viability, T/C (second compound 0.003 µM, first compound 0.316 µM) of the same compound?
The viability, T/C was 99.9%.

And the viability, T/C (second compound 0.003 µM, first compound 1 µM)?
Its viability, T/C is 95.5%.

What about the viability, T/C (second compound 0.003 µM, first compound 3.16 µM) of the same compound?
The viability, T/C was 88%.

And the viability, T/C (second compound 0.003 µM, first compound 10 µM)?
The viability, T/C was 93%.

And the viability, T/C (second compound 0.00949 µM, first compound 0.0316 µM)?
Its viability, T/C is 108%.

What about the viability, T/C (second compound 0.00949 µM, first compound 0.1 µM) of the same compound?
The viability, T/C was 99.6%.

What about the viability, T/C (second compound 0.00949 µM, first compound 0.316 µM) of the same compound?
The viability, T/C was 92.3%.

And the viability, T/C (second compound 0.00949 µM, first compound 1 µM)?
The viability, T/C was 89.1%.

And the viability, T/C (second compound 0.00949 µM, first compound 3.16 µM)?
Its viability, T/C is 95.1%.

And the viability, T/C (second compound 0.00949 µM, first compound 10 µM)?
The viability, T/C was 92.8%.

And the viability, T/C (second compound 0.03 µM, first compound 0.0316 µM)?
Its viability, T/C is 63.6%.

What about the viability, T/C (second compound 0.03 µM, first compound 0.1 µM) of the same compound?
Its viability, T/C is 36.6%.

What about the viability, T/C (second compound 0.03 µM, first compound 0.316 µM) of the same compound?
The viability, T/C was 50.9%.

And the viability, T/C (second compound 0.03 µM, first compound 1 µM)?
The viability, T/C was 36.4%.

And the viability, T/C (second compound 0.03 µM, first compound 3.16 µM)?
Its viability, T/C is 28%.

And the viability, T/C (second compound 0.03 µM, first compound 10 µM)?
The viability, T/C was 2.56%.

What about the viability, T/C (second compound 0.0949 µM, first compound 0.0316 µM) of the same compound?
Its viability, T/C is 1.65%.

And the viability, T/C (second compound 0.0949 µM, first compound 0.1 µM)?
The viability, T/C was 1.55%.

What about the viability, T/C (second compound 0.0949 µM, first compound 0.316 µM) of the same compound?
Its viability, T/C is 1.34%.

And the viability, T/C (second compound 0.0949 µM, first compound 1 µM)?
The viability, T/C was 1.37%.

And the viability, T/C (second compound 0.0949 µM, first compound 3.16 µM)?
Its viability, T/C is 1.24%.

What about the viability, T/C (second compound 0.0949 µM, first compound 10 µM) of the same compound?
The viability, T/C was 1.63%.

What about the viability, T/C (second compound 0.3 µM, first compound 0.0316 µM) of the same compound?
Its viability, T/C is 1.38%.

What about the viability, T/C (second compound 0.3 µM, first compound 0.1 µM) of the same compound?
Its viability, T/C is 1.47%.

What about the viability, T/C (second compound 0.3 µM, first compound 0.316 µM) of the same compound?
The viability, T/C was 1.35%.

And the viability, T/C (second compound 0.3 µM, first compound 1 µM)?
Its viability, T/C is 1.69%.

And the viability, T/C (second compound 0.3 µM, first compound 3.16 µM)?
Its viability, T/C is 1.33%.

What about the viability, T/C (second compound 0.3 µM, first compound 10 µM) of the same compound?
The viability, T/C was 1.57%.
